# Experimental data: ChEMBL document CHEMBL6074691, “Discovery of 22(S)-23-phenyl-24-norchol-5-en-3β,22-diol (PFM046) as the first-in-class, steroidal, non-sulfated Liver X Receptor antagonist with anticancer activity” (Eur J Med Chem, 2025)
# Activity calls are given as the source filed them. No cut-off for these calls is given here.
# Columns and labels:
# [1] = molecular target: T1, Oxysterols receptor LXR-alpha (Homo sapiens, UniProt Q13133); assay: Antagonist activity at LXRalpha (unknown origin) by TR-FRET assay
# T1 sequence (Q13133 whole entry): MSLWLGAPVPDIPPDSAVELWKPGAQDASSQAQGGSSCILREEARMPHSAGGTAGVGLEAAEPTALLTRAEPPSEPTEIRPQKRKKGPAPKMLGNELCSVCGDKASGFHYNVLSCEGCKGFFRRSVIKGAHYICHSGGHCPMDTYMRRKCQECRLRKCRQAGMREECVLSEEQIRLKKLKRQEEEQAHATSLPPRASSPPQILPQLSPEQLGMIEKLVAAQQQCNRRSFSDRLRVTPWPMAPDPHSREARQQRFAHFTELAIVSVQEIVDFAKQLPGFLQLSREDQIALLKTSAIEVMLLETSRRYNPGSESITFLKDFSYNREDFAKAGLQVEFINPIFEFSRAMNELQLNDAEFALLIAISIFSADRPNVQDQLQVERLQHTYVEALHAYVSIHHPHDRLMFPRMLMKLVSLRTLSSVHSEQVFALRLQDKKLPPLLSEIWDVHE
# [2] = molecular target: T1, Oxysterols receptor LXR-alpha; assay: Antagonist activity at LXRalpha (unknown origin)
# [3] = tested on: Lewis lung carcinoma cell line; assay: Antitumor activity against mouse Lewis lung carcinoma cell line assessed as reduction in cell number at 10 uM incubated for 72 hrs by trypan blue assay; assay type: functional, cell-based
# [4] = Kinetic solubility of compound in PBS at pH 7.4 by Rapidfire-MS/MS method; assay type: physicochemical; conditions: buffer
# [5] = Tmax in C57BL/6 mouse at 400 ug, ip by UHPLC-MS/MS analysis; assay type: ADME, organism-based; conditions: in vivo, dose 400 µg
# [6] = Unbound fraction in mouse plasma by dialysis method; assay type: ADME, cell-free
# [7] = Drug uptake in C57BL/6 mouse at 400 ug, ip measured after 1 hr by UHPLC-MS/MS analysis; assay type: ADME, organism-based; conditions: in vivo, dose 400 µg, read-out: Drug uptake
# [8] = tested on: U-937; assay: Downregulation of FASN expression in human U-937 cells incubated for 72 hrs by qRT-PCR analysis; assay type: functional, cell-based
# [9] = Hepatic intrinsic clearance in human liver microsomes assessed per mg protein at 0.5 uM in presence of NADPH regenerating system by UHPLC-MS/MS method; assay type: ADME, Microsome; conditions: read-out: CLH
# [10] = Cmax in C57BL/6 mouse at 400 ug, ip by UHPLC-MS/MS analysis; assay type: ADME, organism-based; conditions: in vivo, dose 400 µg
# [11] = Clast in C57BL/6 mouse at 400 ug, ip by UHPLC-MS/MS analysis; assay type: ADME, organism-based; conditions: in vivo, dose 400 µg
# [12] = AUClast in C57BL/6 mouse at 400 ug, ip by UHPLC-MS/MS analysis; assay type: ADME, organism-based; conditions: in vivo, dose 400 µg
# [13] = Unbound fraction in human plasma by dialysis method; assay type: ADME, cell-free
# [14] = tested on: U-937; assay: Upregulation of ABCA1 expression in human U-937 cells incubated for 72 hrs by qRT-PCR analysis; assay type: functional, cell-based
# [15] = Hepatic intrinsic clearance in mouse liver microsomes assessed per mg protein at 0.5 uM in presence of NADPH regenerating system by UHPLC-MS/MS method; assay type: ADME, Microsome; conditions: read-out: CLH
# [16] = tested on: Lewis lung carcinoma cell line; assay: Antitumor activity against mouse Lewis lung carcinoma cell line implanted in C57BL/6 mouse assessed as reduction in tumor volume at 300 to 400 ug, ip administered 5 days per week and measured every 2 to 3 days by caliper method; assay type: functional, organism-based; conditions: dose 300-400 µg
# [17] = tested on: U-937; assay: Downregulation of SCD1 expression in human U-937 cells incubated for 72 hrs by qRT-PCR analysis; assay type: functional, cell-based
# [18] = tested on: U-937; assay: Downregulation of SREBP-1 expression in human U-937 cells incubated for 72 hrs by qRT-PCR analysis; assay type: functional, cell-based
# [19] = Tlast in C57BL/6 mouse at 400 ug, ip by UHPLC-MS/MS analysis; assay type: ADME, organism-based; conditions: in vivo, dose 400 µg
# [20] = tested on: B16-F1; assay: Antitumor activity against mouse B16-F1 cells implanted in C57BL/6 mouse assessed as reduction in tumor volume at 300 to 400 ug, ip administered 5 days per week and measured every 2 to 3 days by caliper method; assay type: functional, organism-based; conditions: dose 300-400 µg
# [21] = Drug uptake in C57BL/6 mouse at 400 ug, ip measured after 24 hrs by UHPLC-MS/MS analysis; assay type: ADME, organism-based; conditions: in vivo, dose 400 µg, read-out: Drug uptake
# [22] = Drug uptake in C57BL/6 mouse at 400 ug, ip measured after 6 hrs by UHPLC-MS/MS analysis; assay type: ADME, organism-based; conditions: in vivo, dose 400 µg, read-out: Drug uptake
# [23] = Drug uptake in C57BL/6 mouse at 400 ug, ip measured after 3 hrs by UHPLC-MS/MS analysis; assay type: ADME, organism-based; conditions: in vivo, dose 400 µg, read-out: Drug uptake
# [24] = tested on: Mus musculus; assay: Observed extrapolated AUC in C57BL/6 mouse at 400 ug, ip by UHPLC-MS/MS analysis; assay type: ADME, organism-based; conditions: in vivo, at 400 µg
# [25] = Observed AUC infinity in C57BL/6 mouse at 400 ug, ip by UHPLC-MS/MS analysis; assay type: ADME, organism-based; conditions: in vivo, dose 400 µg
Compound,IC50 [1],IC50 [2],Kinetic_solubility [4],Tmax [5],Fu [6],concentration at 1 h [7],microsomal CLint at 0.5 µM [9],Cmax [10],Clast [11],AUC(0-t) [12],Fu [13],microsomal CLint at 0.5 µM [15],Activity [16],Tlast [19],Activity [20],concentration at 6 h [22],concentration at 3 h [23],other results
CC(C)[C@H](CC[C@@H](C)[C@H]1CC[C@H]2[C@@H]3CC=C4C[C@@H](O)CC[C@]4(C)[C@H]3CC[C@]12C)OS(=O)(=O)O,310 nM,–,–,–,–,–,–,–,–,–,–,–,–,–,–,–,–,–
CC(C)CCC[C@@H](C)[C@H]1CC[C@H]2[C@@H]3C(=O)C=C4C[C@@H](OS(=O)(=O)O)CC[C@]4(C)[C@H]3CC[C@]12C,–,5000 nM,–,–,–,–,–,–,–,–,–,–,–,–,–,–,–,–
C[C@@H]([C@H]1CC[C@H]2[C@@H]3CC=C4C[C@@H](O)CC[C@]4(C)[C@H]3CC[C@]12C)[C@@H](O)Cc1ccccc1,–,–,NotTraceable,6 h,< 1%,68.9 ng/mL,< 9.9 µL/min/mg,174 ng/mL,167 ng/mL,3070 ng·h/mL,< 1%,45.8 µL/min/mg,Active,24 h,Active,110 ng/mL,109 ng/mL,Activity [3]: Active; Activity [8]: Active; Activity [14]: Active; Activity [17]: Active; Activity [18]: Active; concentration at 24 h [21]: 167 ng/mL
CC(C)CCC[C@@H](C)[C@H]1CC[C@H]2[C@@H]3C[C@@H]4O[C@@]45C[C@@H](OS(=O)(=O)O)CC[C@]5(C)[C@H]3CC[C@]12C,–,2000 nM,–,–,–,–,–,–,–,–,–,–,–,–,–,–,–,–
CC(C)[C@@H](O)CC[C@@H](C)[C@H]1CC[C@H]2[C@@H]3CC=C4C[C@@H](OS(=O)(=O)O)CC[C@]4(C)[C@H]3CC[C@]12C,150 nM,–,–,–,–,–,–,–,–,–,–,–,–,–,–,–,–,–
CC(C)CC[C@H](O)[C@@H](C)[C@H]1CC[C@H]2[C@@H]3CC=C4C[C@@H](OS(=O)(=O)[O-])CC[C@]4(C)[C@H]3CC[C@]12C.[Na+],–,–,NotTraceable,1 h,< 1%,3170 ng/mL,26.4 µL/min/mg,3170 ng/mL,65.2 ng/mL,4690 ng·h/mL,< 1%,17.2 µL/min/mg,Active,6 h,Active,65.2 ng/mL,363 ng/mL,%AUCextra [24]: 2.5%; AUC(0-inf) [25]: 4800 ng·h/mL
